Source: patent publication US20210106649A1, “SYNERGISTIC COMBINATION OF CHEMOTHERAPY AND PEPTIDE FOR TREATING CANCER” (TOBEBIO Novel Drug Laboratory Co., Ltd., priority 2019, published 2021)
Ends that are not written are not given here.

Test system: AsPC-1 pancreatic cancer cells
Experiment: Survival analysis of AsPC-1 pancreatic cancer orthotopic mice model
Type: in vivo, athymic nude mice
Conditions: alloferon-1 2.5 mg/kg daily s.c.; paclitaxel 8 mg/kg weekly i.p.; orthotopic AsPC-1 nude mice
Protocol: AsPC-1, human pancreas adenocarcinoma cell line, was purchased from American Type Culture Collection (ATCC) and maintained in a complete Eagle's minimal essential medium (MEM) medium supplemented with 10% fetal bovine serum (FBS) (Hyclone), non-essential amino acid, sodium pyruvate, penicillin-streptomycin and vitamin solution (Life Technologies). AsPC-1 cells were incubated at 37° C. in a mixture atmosphere of 5% CO2 and 95% […]. Cell lines were authenticated via short tandem repeat (STR) profiling (Cosmogenetech).
The number of survival days for all animals was recorded and statistical analysis was performed using the GraphPad Prism 8. Kaplan-Meier survival plots were analyzed with the Log-rank (Mantel-Cox) test to compare survival rates between groups. A probability (P) value of <0.05 or lower was considered statistically significant.

Molecule: HGVSGHGQHGVHG [Alloferon-1]
- Median survival: 91 days

Molecule: CC(=O)O[C@H]1C(=O)[C@@]2(C)[C@H]([C@H](OC(=O)c3ccccc3)[C@]3(O)C[C@H](OC(=O)[C@H](O)[C@@H](NC(=O)c4ccccc4)c4ccccc4)C(C)=C1C3(C)C)[C@]1(OC(C)=O)CO[C@@H]1C[C@@H]2O [Paclitaxel, paclitaxel]
- Median survival: 107 days
